Reference: US5612341A, “Brominated hexahydroxybiphenyl derivatives” (Biotech Research Laboratories, priority 1995, dated 1997)
Converted amounts (≈) assume the structure as drawn. Where a name gives a salt, the structure may show the parent alone. Read-outs that look alike come from different tables or passages of the source.

Columns and labels:
[1] = test system: HIV-1 (IIIB isolate); assay: microbe, parasite or virus in culture; format: cell-based; settings: for Therapeutic Index / therapeutic index (TI): 5760 min
Experimental: (§1) The H9 T cell line was maintained in continuous culture with complete medium (RPMI and 10% fetal calf serum) at 5% CO2 and 37° C. and was used in experiments only when in log phase of growth. The cells were incubated with HIV-1 (IIIB isolate, TCID50 10^4 IU/mL, at a multiplicity of infection of 0.1-0.01 IU/cell) for 1 hour at 37° C. and 5% CO2. The cells then were washed thoroughly to remove unabsorbed virions and resuspended at 4×10^5 cells/mL in complete medium. Aliquots (1 mL) were placed in wells of 24-well culture plates containing an equal volume of test compound (diluted in the culture medium). After a four day incubation at 37° C., cell density of uninfected cultures was determined by counting cells in a Coulter counter to assess toxicity of the test compound. A p24 antigen ELISA assay was used to determine the level of virus released in the medium of the HIV-infected cultures. The p24 antigen assay uses an HIV-1 anti-p24 specific monoclonal antibody as the capture antibody coated on 96 well plates. Following a sample incubation period, rabbit serum containing antibodies for HIV-1 p24 is used to tag any p24 "captured" onto the microtiter well surface. […] The cut-off for the p24 ELISA assay is 12.5 pg/mL. P24 in the culture medium was quantitated against a standard curve containing known amounts of p24. The effective (EC50) and inhibitory concentrations (for anti-HIV activity and cytotoxicity, respectively) were determined.

[2] = test system: HIV-1 (IIIB isolate); settings: cited from earlier work
[3] = test system: H9 T cell line; assay: Toxicity to uninfected H9 cells (cell count); format: cell-based
Experimental: as §1

[4] = biological target: T1, HIV reverse transcriptase associated RNase H (HIV-1 M:B_HXB2R, UniProt P04585); assay: HIV reverse transcriptase associated RNase H activity; format: biochemical
T1 construct: cut from Gag-Pol polyprotein

[5] = test system: chronically HIV-1 infected T cell line, ACH-2; assay: Virus expression in chronically HIV-1 infected T cell line ACH-2 (p24 ELISA); format: cell-based; settings: 72 hours; for induction of virus expression: cultured alone; for alteration in the level of virus expression: in presence of PMA
Experimental: Data obtained by using chronically HIV-1 infected cell lines that are cultured with a test drug can give a sense of how these compounds may function in vivo if given to a latently HIV- infected individual. Therefore, compounds 4 and 5 were separately added for 72 hours to the chronically HIV-1 infected T cell line, ACH-2, and to the chronically HIV-1 infected promonocytic cell line, U1.
(§2) HIV-1 chronically infected T cell line, ACH-2, ^15 and HIV-1 chronically infected promonocytic cell line, U1 ^16 were continuously maintained in RPMI1640 with 10% fetal calf serum (FCS). For experiments, the cell lines were only used in log-phase of growth. Cells (1×10^6 cells/well) and either various concentrations of 4,5, AZT or media alone were added to 24-well plates in the presence or absence of PMA (10^-8 M). After 72 hours at 37° C. and 5% CO2, an aliquot of the cell-free supernatants was collected and analyzed for p24 antigen by ELISA.

[6] = biological target: T2, HIV-1 reverse transcriptase (Human immunodeficiency virus type 1 group M subtype B, UniProt P04585); assay: HIV-1 reverse transcriptase, RNA-dependent DNA polymerase associated activity; format: biochemical; design: HIV-1 reverse transcriptase was purified; made in house; host or cells: Escherichia coli JM 109 containing pKRT 2 (plasmid provided by W. C. Summers, Yale University); settings: for HIV-1 reverse transcriptase inhibitory activity: template-primer dependent, result in words; for IC50: mean ± standard deviation of three
Experimental: (§3) HIV-1 reverse transcriptase was purified using Escherichia coli JM 109 containing pKRT 2 kindly provided by W. C. Summers (Yale University).
(§4) Enzyme Assay. All reactions were developed in a total volume of 50 μl containing 50 mMTris HCl pH 7.8, 2 mM MgCl2, 100 μg/mL nuclease-free BSA, 1 mM dithiothreitol, 0.5 O.D.260 unit/mL of template-primer, and 330 nM of [^3 H]dNTP according to Cheng et al.

[7] = test system: chronically HIV-1 infected promonocytic cell line, U1; assay: Virus expression in chronically HIV-1 infected promonocytic U1 cells (p24 ELISA); format: cell-based; settings: for induction of virus expression / alteration in the level of virus expression: 72 hours; for induction of virus expression: cultured alone; for alteration in the level of virus expression: in presence of PMA
Experimental: Therefore, compounds 4 and 5 were separately added for 72 hours to the chronically HIV-1 infected T cell line, ACH-2, and to the chronically HIV-1 infected promonocytic cell line, U1.
as §2

[8] = biological target: T2, HIV-1 reverse transcriptase; assay: HIV-1 reverse transcriptase, DNA-dependent DNA polymerase associated activity; format: biochemical; design: HIV-1 reverse transcriptase was purified; made in house; host or cells: Escherichia coli JM 109 containing pKRT 2 (plasmid provided by W. C. Summers, Yale University); settings: for inhibitory effect against RT-associated DNA polymerase activity: under certain conditions
Experimental: as §3, §4

[9] = Poly(rA)-poly(dT) as substrate, or Mg^+2 as divalent cation
[10] = Poly(rG)-poly(dC) as substrate, Mn^+2 (0.4 mM)
[11] = template-primer poly(rA)-olig(dT)10
[12] = template-primer poly(rC)-olig(dG)12-18
[13] = Human immunodeficiency virus 1, H9, text, acutely infected H9 cells, read-out: EC50 (anti-HIV activity)
[14] = Human immunodeficiency virus 1, Lymphocyte, Table I, acutely infected H9 lymphocytes, read-out: EC50
[15] = Human immunodeficiency virus 1, Lymphocyte, Table IA, acutely infected H9 lymphocytes, read-out: EC50
[16] = Homo sapiens, H9, Table I, cytotoxicity, uninfected H9 cells, read-out: IC50
[17] = Poly(dA)-olig(dT) as template primer
[18] = Table II, template-primer printed poly(rA)-olig(dT)^10, mean ± standard deviation of three

Structure (SMILES) | Therapeutic Index ([1]; Table I, IC50/EC50) | Therapeutic Index ([1]; Table IA, ratio IC50/EC50) | inhibition of HIV RT associated RNase H activity [4, 9] | inhibition of HIV RT associated RNase H activity [4, 10] | inhibition of HIV RT associated RNase H activity ([4]; under certain conditions) | induction of virus expression [5] | alteration in the level of virus expression [5] | HIV-1 reverse transcriptase inhibitory activity [6] | IC50 [6, 11] | IC50 [6, 12] | therapeutic index (TI) [1] | EC50 [1, 13] | EC50 [1, 14] | EC50 [1, 15] | induction of virus expression [7] | alteration in the level of virus expression [7] | p24 ([7]; +Media, 0.0064 μg/mL) | p24 ([7]; +Media, 0.032 μg/mL) | p24 ([7]; +Media, 0.16 μg/mL) | IC50 [3, 16] | further results
COC(=O)c1cc(OC)c2c(c1-c1c(C(=O)OC)cc(OC)c3c1OCO3)OCO2 [Compound 3, 4,4'-dimethoxy-5,6,5'6'-dimethylenedioxy-2,2'-dimethoxycarbonyl biphenyl, reference compound] | > 20 | > 20 | – | – | – | – | – | – | – | – | – | – | – | – | – | – | – | – | – | – | EC50 ([1]; Human immunodeficiency virus 1, IIIB, Lymphocyte): 5 µg/mL (≈ 12 µM); TI ([2]; background section): > 20; IC50 ([3]; Homo sapiens, H9): > 100 µg/mL; IC50 ([3]; T-cell): > 100 µg/mL
COc1c(OCc2ccccc2)c(OCc2ccccc2)cc(CO)c1-c1c(CO)cc(OCc2ccccc2)c(OCc2ccccc2)c1OC [Compound 2, 4,4',5,5'-tetrakis(benzyloxy)-6,6'-dimethoxy-2,2'-dihydroxymethyl biphenyl] | – | – | – | – | – | – | – | – | – | – | – | – | – | – | – | – | – | – | – | – | anti-HIV activity ([2]; parent compound, comparable to that of DDB): does possess anti-HIV activity
COC(=O)c1cc(OC)c2c(c1-c1c3c(c(OC)c(Br)c1C(=O)OC)OCO3)OCO2 [Compound 4, 3-Bromo-4,4'-dimethoxy-5,6,5',6'-bimethylenedioxy-2,2'-dimethoxycarbonyl biphenyl] | > 190 | 190 | no inhibition | almost equal potency | Potent inhibitory effects | no increase in the induction of virus expression | no alteration in the level of virus expression | template-primer HIV-1 reverse transcriptase inhibitory activity | 4500 ± 1000 nM | 2200 ± 600 nM | 190 | 0.52 µg/mL (≈ 1.05 µM) | 0.52 µg/mL (≈ 1.05 µM) | 0.52 µg/mL (≈ 1.05 µM) | no increase in the induction of virus expression | no alteration in the level of virus expression | 7 pg/mL | 10 pg/mL | 12 pg/mL | > 100 µg/mL | p24 ([7]; +Media, 0.8 μg/mL): 11 pg/mL; p24 ([7]; +Media, 4 μg/mL): 11 pg/mL; p24 ([7]; +Media, 20 μg/mL): 22 pg/mL; p24 ([7]; +PMA, 0.0064 μg/mL): 8,314 pg/mL; p24 ([7]; +PMA, 0.032 μg/mL): 7,200 pg/mL; p24 ([7]; +PMA, 0.16 μg/mL): 7,616 pg/mL; p24 ([7]; +PMA, 0.8 μg/mL): 8,774 pg/mL; p24 ([7]; +PMA, 4 μg/mL): 13,376 pg/mL; p24 ([7]; +PMA, 20 μg/mL): 10,746 pg/mL; IC50 ([3]; T-cell, Table IA, concentration that causes a 50% reduction in total cell number): 100 µg/mL (≈ 201 µM); IC50 [8, 17]: 56 nM; IC50 [8, 18]: 56 ± 3 nM; inhibitory effect against RT-associated DNA polymerase activity [8]: Potent inhibitory effects
COC(=O)c1c(Br)c(OC)c2c(c1-c1c3c(c(OC)c(Br)c1C(=O)OC)OCO3)OCO2 [Compound 5, 3,3'-Dibromo-4,4'-dimethoxy-5,6,5'6'-bimethylenedioxy-2,2'-dimethoxycarbonyl biphenyl] | > 480 | > 480 | no inhibition | almost equal potency | Potent inhibitory effects | no increase in the induction of virus expression | no alteration in the level of virus expression | template-primer HIV-1 reverse transcriptase inhibitory activity | 1900 ± 900 nM | 11000 ± 500 nM | > 480 | 0.23 µg/mL (≈ 0.399 µM) | 0.23 µg/mL (≈ 0.399 µM) | 0.23 µg/mL (≈ 0.399 µM) | no increase in the induction of virus expression | no alteration in the level of virus expression | 17 pg/mL | 15 pg/mL | 13 pg/mL | > 100 µg/mL | p24 ([7]; +Media, 0.8 μg/mL): 14 pg/mL; p24 ([7]; +Media, 4 μg/mL): 16 pg/mL; p24 ([7]; +Media, 20 μg/mL): 15 pg/mL; p24 ([7]; +PMA, 0.0064 μg/mL): 7,590 pg/mL; p24 ([7]; +PMA, 0.032 μg/mL): 8,320 pg/mL; p24 ([7]; +PMA, 0.16 μg/mL): 9,850 pg/mL; p24 ([7]; +PMA, 0.8 μg/mL): 11,482 pg/mL; p24 ([7]; +PMA, 4 μg/mL): 10,598 pg/mL; p24 ([7]; +PMA, 20 μg/mL): 10,131 pg/mL; IC50 ([3]; T-cell, Table IA, concentration that causes a 50% reduction in total cell number, read-out: IC50): > 100 µg/mL; IC50 [8, 17]: 48 nM; IC50 [8, 18]: 48 ± 4 nM; inhibitory effect against RT-associated DNA polymerase activity [8]: Potent inhibitory effects
COc1c(Br)c(C(=O)O)c(-c2c3c(c(OC)c(Br)c2C(=O)O)OCO3)c2c1OCO2 [Compound 7, 3,3'-Dibromo-4,4'-dimethoxy-5,6,5'6'-bimethylenedioxy-2,2'-dicarboxy biphenyl disodium salt] | – | – | – | – | – | – | – | – | – | – | – | – | – | – | – | – | – | – | – | – | Therapeutic Index ([1]; Table I, IC50/EC50, disodium salt): 1; EC50 ([1]; Table I, acutely infected H9 lymphocytes, disodium salt): > 100 µg/mL; anti-HIV activity ([1]; result in words): decrease in the anti-HIV activity; IC50 ([3]; Table I, cytotoxicity, uninfected H9 cells, disodium salt): > 100 µg/mL
CCCCCCOC(=O)c1c(Br)c(OC)c2c(c1-c1c3c(c(OC)c(Br)c1C(=O)OCCCCCC)OCO3)OCO2 [Compound 15, 3,3'-Dibromo-4,4'-dimethoxy-5,6,5'6'-bimethylenedioxy-2,2'-dihexanoxycarbonyl biphenyl] | > 50 | – | – | – | – | – | – | – | – | – | – | – | – | – | – | – | – | – | – | > 100 µg/mL | EC50 ([1]; Human immunodeficiency virus 1, IIIB, Lymphocyte, Table I, acutely infected H9 lymphocytes, read-out: EC50): 2 µg/mL (≈ 2.79 µM)
